Patent publication US11413278B2, “Compounds and methods for promoting stress resistance” (priority 2015, dated 2022)
Where two headings read alike, the source gives them in different places.

How the values were obtained:
[1] = test system: WI-38 cells; assay: Propidium iodide (PI) cell-death imaging upon H2O2 stress; format: cell-based, human; conditions: for Assay 7: H2O2-resistant, at 10 uM, validated by propidium iodide (PI) cell-death imaging: w/H2O2, 3 hrs/4 hrs/5 hrs, YES/NO; for cytotoxicity at 10 µM: Homo sapiens, WI-38
[2] = target: T1, human PARP1 (Homo sapiens, UniProt P09874); assay: PARP inhibitor assay (HT Fluorescent Homogeneous PARP Inhibition Assay Kit); format: biochemical; conditions: score
T1 construct: purchased Trevigen
T1 sequence (P09874 whole entry): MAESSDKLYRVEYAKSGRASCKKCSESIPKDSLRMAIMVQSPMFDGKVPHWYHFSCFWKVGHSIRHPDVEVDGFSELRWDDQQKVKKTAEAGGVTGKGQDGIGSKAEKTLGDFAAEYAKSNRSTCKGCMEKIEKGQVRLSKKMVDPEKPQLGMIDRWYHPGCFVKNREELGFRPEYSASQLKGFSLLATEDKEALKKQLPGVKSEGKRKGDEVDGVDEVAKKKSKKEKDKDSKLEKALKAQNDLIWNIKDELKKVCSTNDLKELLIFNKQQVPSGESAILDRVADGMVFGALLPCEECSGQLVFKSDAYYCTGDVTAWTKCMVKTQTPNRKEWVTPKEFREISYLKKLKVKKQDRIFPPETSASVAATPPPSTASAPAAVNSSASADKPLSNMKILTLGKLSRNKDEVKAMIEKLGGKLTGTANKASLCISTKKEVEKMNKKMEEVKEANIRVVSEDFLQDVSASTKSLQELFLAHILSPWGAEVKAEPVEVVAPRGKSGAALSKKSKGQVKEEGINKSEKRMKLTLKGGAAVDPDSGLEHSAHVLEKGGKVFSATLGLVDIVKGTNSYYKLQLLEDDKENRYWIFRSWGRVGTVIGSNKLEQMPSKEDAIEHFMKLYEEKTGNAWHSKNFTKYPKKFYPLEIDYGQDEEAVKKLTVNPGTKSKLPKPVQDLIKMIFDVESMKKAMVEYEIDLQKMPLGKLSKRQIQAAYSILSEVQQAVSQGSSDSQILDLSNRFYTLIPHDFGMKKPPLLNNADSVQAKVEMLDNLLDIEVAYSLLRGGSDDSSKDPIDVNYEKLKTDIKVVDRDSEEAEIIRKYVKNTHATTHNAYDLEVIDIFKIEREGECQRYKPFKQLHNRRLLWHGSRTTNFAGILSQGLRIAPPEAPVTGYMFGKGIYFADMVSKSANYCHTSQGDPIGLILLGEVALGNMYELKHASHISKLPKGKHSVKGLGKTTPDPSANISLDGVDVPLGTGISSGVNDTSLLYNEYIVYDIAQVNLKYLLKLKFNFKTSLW
Outline: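 Human PARP1 with NAD and activated DNA, compounds at 10 μM final, 30 min at room temperature in dark. Resazurin/diaphorase cycling mix then added for 1 hr in dark before stop buffer; fluorescent homogeneous kit read-out.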

[3] = test system: WI-38 cells; assay: CdCl2 (cadmium) resistance assay; format: cell-based, human; conditions: for fold induction at 10 µM: Homo sapiens, 12 h, normalized ATP measurement; for Assay 4: H2O2- & Cd-resistant / Assay 2: Cadmium-resistant: YES/NO; for Assay 2: Cadmium-resistant: * indicates partial
Outline: (§1)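 WI-38 cells were given compounds at five final concentrations (0.25–20 μM) in triplicate, followed by cadmium or MMS for 12 h. For MMS, medium was switched from OptiMEM+10% FBS to serum-free DMEM+2% BSA when compounds were added, 24 h before stressor. Two independent assays were run, analysed by global variance t-test.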

[4] = test system: WI-38 cells; assay: MMS resistance assay; format: cell-based, human; conditions: for fold induction at 10 µM: Homo sapiens, 12 h, normalized ATP measurement; for Assay 3: MMS-resistant / Assay 5: Triple resistant: YES/NO; for Assay 3: MMS-resistant: * indicates partial; for Assay 5: Triple resistant: H2O2, cadmium and MMS
Outline: as §1

[5] = test system: human dermal fibroblast (HDF) primary cells; assay: H2O2-resistance in primary human dermal fibroblasts; format: cell-based; conditions: for fold induction at 10 µM: Homo sapiens; for Assay 6: H2O2-resistant, at 10 uM, human dermal fibroblast (HDF) primary cells: YES/NO
[6] = test system: PC12 cells expressing poly(Q)103-Htt-EGFP; assay: Poly(Q) toxicity & viability analysis (cellular model of Huntington's disease); format: cell-based, rat; conditions: for M = Huntington's poly-Q toxicity attenuation: score; for K = Huntington's poly-Q toxicity attenuation: summary score
Outline: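 PC12 cells stably carrying inducible poly(Q)103-Htt-EGFP, whose induced expression causes aggregation and toxicity. Viability read 48 hrs later as ATP content by CellTiter-Glo.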

[7] = test system: WI-38 cells; conditions: no H2O2 stress, 10 uM; negative control 0.41% ± 0.23%
Description: WI-38 cells were seeded on 384-well plates for 24 hrs and then incubated with small molecules for 24 hrs. […] Images were collected on an INCell Analyzer 2000 (GE) and analyzed with the Developer software.

[8] = Summary score for characterization of 38 core set hits; conditions: for D = Triple resistant: 2-point score, multiplex resistance (cadmium, MMS, H2O2); for C = H2O2- & Cd-resistant: score, resistance to both H2O2 and cadmium
Outline: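 Composite score. 2 pts each: multiplex stress resistance, FOXO3/NRF2 activation, mTOR down-regulation. Worm lifespan (4–6 independent trials): 0 = no obvious effect, 1 = extension in 2 trials, 2 = extension in >2 trials. −1 for DNA damage and/or cytotoxicity in cultured human cells.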

[9] = H2O2 3 hrs, 10 uM, n = 6, negative control 5.44% ± 0.79%, read-out: Percentage of propidium iodide-positive dead cells (under H2O2 stress treatment), 3 hrs
[10] = H2O2 4 hrs, 10 uM, n = 6, negative control 16.81% ± 1.42%, read-out: Percentage of propidium iodide-positive dead cells (under H2O2 stress treatment), 4 hrs
[11] = pre-treatment at 10 uM, 3.5 hours of H2O2, DMSO control 27.4% ± 6.5%, */**/*** = reduced by one/two/three standard deviations, read-out: Percentage of propidium iodide-positive dead cells (under H2O2 stress treatment), at 10 uM
[12] = Exp. 1, WI-38 cells, read-out: Exp. 1, under Cd2Cl2 stress treatment, at 10 uM (fold change)
[13] = Exp. 2, WI-38 cells, read-out: Exp. 2, under Cd2Cl2 stress treatment, at 10 uM (fold change)
[14] = score in summary of 38 core set hits
[15] = Exp. 1, WI-38 cells, read-out: Exp. 1, under MMS stress treatment, at 10 uM (fold change)
[16] = Exp. 2, WI-38 cells, read-out: Exp. 2, under MMS stress treatment, at 10 uM (fold change)
[17] = Experiment 1, HDF cells, read-out: Experiment 1, HDF cells (under H2O2 stress treatment), at 10 uM (fold change)
[18] = Experiment 2, HDF cells, read-out: Experiment 2, HDF cells (under H2O2 stress treatment), at 10 uM (fold change)
[19] = WI-38 cells, 10 μM, both stressors
[20] = H2O2 5 hrs, 10 uM, n = 6, negative control 22.50% ± 1.53%, read-out: Percentage of propidium iodide-positive dead cells (under H2O2 stress treatment), 5 hrs

Row | SMILES | Assay 7: H2O2-resistant, at 10 uM, validated by propidium iodide (PI) cell-death imaging ([1]; 10 uM) | cytotoxicity at 10 µM [1, 9] | cytotoxicity at 10 µM [1, 10] | cytotoxicity at 10 µM [1, 11] | L = PARP inhibition [2] | fold induction at 10 µM [3, 12] | fold induction at 10 µM [3, 13] | Assay 4: H2O2- & Cd-resistant [3] | A = Cadmium resistant [3, 14] | A = Cadmium resistant ([3]; summary score) | C = H2O2- & Cd-resistant ([3]; summary score) | B = MMS resistant [4, 14] | B = MMS resistant ([4]; summary score) | D = Triple resistant ([4]; summary score) | Assay 6: H2O2-resistant, at 10 uM, human dermal fibroblast (HDF) primary cells [5] | M = Huntington's poly-Q toxicity attenuation [6] | K = Huntington's poly-Q toxicity attenuation [6] | Percentage of propidium iodide-positive dead cells (no H2O2 stress treatment), at 10 uM [7] | D = Triple resistant [8] | C = H2O2- & Cd-resistant [8] | further results
1 | COc1ccc(C(=O)/C=C/c2cccc(Cl)c2)c(OC)c1 [Gr-4C] | YES | 4.02% | 6.21% | 17.4% | 0 | 1.07 | 1.19 | YES | 0 | 1 | 1 | 0 | 1 | 2 | YES | 0 | 0 | 0.47% ± 0.20%, | 0 | 0 | Assay 2: Cadmium-resistant [3]: YES; fold induction at 10 µM [4, 15]: 1.24; fold induction at 10 µM [4, 16]: 1.61; Assay 3: MMS-resistant [4]: YES; Assay 5: Triple resistant [4]: YES; fold induction at 10 µM [5, 17]: 4.32; fold induction at 10 µM [5, 18]: 3.15; S = Sum of Negative scores ([8]; sum of columns Q and R): 0
2 | O=[N+]([O-])c1ccccc1S(=O)(=O)Nc1cccc2cccnc12 [Gr-3A] | YES | 5.54% | – | 12.4% | 0 | 1.93 | 1.64 | YES | 1 | 1 | 1 | 0 | 1 | 2 | YES | 0 | 0 | 0.54% ± 0.16%, | 0 | 1 | CdCl2-resistant [3]: YES; H2O2- & CdCl2-resistant [3]: YES; CdCl2-resistant ([3]; WI-38 cells, 10 μM): YES; H2O2- & CdCl2-resistant [3, 19]: YES; Assay 2: Cadmium-resistant [3]: YES; fold induction at 10 µM [4, 15]: 1; fold induction at 10 µM [4, 16]: 0.86; Assay 3: MMS-resistant [4]: YES; Assay 5: Triple resistant [4]: YES; fold induction at 10 µM [5, 17]: 2.38; fold induction at 10 µM [5, 18]: 1.67; S = Sum of Negative scores ([8]; human): 1
3 | Oc1ccccc1-c1noc(-c2ccccc2O)n1 [O27] | YES | 0.55% | 0.82% | 0.5% | 0 | – | – | YES | 1 | 1 | 1 | 0 | 0 | 0 | YES | 0 | 0 | 0.50% ± 0.17%, | 0 | 1 | cytotoxicity at 10 µM [1, 20]: 1.07%; CdCl2-resistant [3]: YES; H2O2- & CdCl2-resistant [3]: YES; CdCl2-resistant ([3]; WI-38 cells, 10 μM): YES; H2O2- & CdCl2-resistant [3, 19]: YES; Assay 2: Cadmium-resistant [3]: YES; Assay 5: Triple resistant [4]: YES; S = Sum of Negative scores ([8]; human): 2
4 | [O-][n+]1onc2c3nsnc3c(Br)cc21 [O17] | YES | 0.8% | 2.83% | 6.6% | 0 | 0.95 | 1.35 | – | 0 | 0 | 0 | 0 | 0 | 0 | YES | 0 | 0 | 0.56% ± 0.25%, | 0 | 0 | fold induction at 10 µM [4, 15]: 0.86; fold induction at 10 µM [4, 16]: 5.33; fold induction at 10 µM [5, 17]: 3.35; fold induction at 10 µM [5, 18]: 48.5; S = Sum of Negative scores ([8]; human): 0
5 | O=C(c1ccc([N+](=O)[O-])o1)N1CCc2ccccc21 [O13] | YES | 1.13% | 2.56% | 4.8% | 0 | 1.27 | 1.55 | YES | 0 | 1 | 1 | 0 | 1 | 2 | YES | 0 | 0 | 0.69% ± 0.12%, | 0 | 0 | cytotoxicity at 10 µM [1, 20]: 7.03%; Assay 2: Cadmium-resistant [3]: YES; fold induction at 10 µM [4, 15]: 1.11; fold induction at 10 µM [4, 16]: 2.24; Assay 3: MMS-resistant [4]: YES; Assay 5: Triple resistant [4]: YES; fold induction at 10 µM [5, 17]: 11.2; fold induction at 10 µM [5, 18]: 60.5; S = Sum of Negative scores ([8]; human): 0
